Measurements taken from patent publication US20090093633A1, “Organic Compounds” (Novartis AG, priority 2006, published 2009).
Structures can show the parent of a compound that is named as a salt.

Biological target: adenosine A2A receptor (Homo sapiens, UniProt P29274)
Experiment: adenosine A2A receptor agonist assay (method of Murphree et al, Molecular Pharmacology 61, 455-462 (2002))
Format: binding
Conditions: method of L. J. Murphree et al, Mol. Pharmacol. 61, 455-462 (2002)
Excerpt: Compounds of formula I and their pharmaceutically acceptable salts are useful as pharmaceuticals. In particular, they activate the adenosine A2A receptor, i.e. they act as A2A receptor agonists.

Sequence of adenosine A2A receptor (P29274 whole entry): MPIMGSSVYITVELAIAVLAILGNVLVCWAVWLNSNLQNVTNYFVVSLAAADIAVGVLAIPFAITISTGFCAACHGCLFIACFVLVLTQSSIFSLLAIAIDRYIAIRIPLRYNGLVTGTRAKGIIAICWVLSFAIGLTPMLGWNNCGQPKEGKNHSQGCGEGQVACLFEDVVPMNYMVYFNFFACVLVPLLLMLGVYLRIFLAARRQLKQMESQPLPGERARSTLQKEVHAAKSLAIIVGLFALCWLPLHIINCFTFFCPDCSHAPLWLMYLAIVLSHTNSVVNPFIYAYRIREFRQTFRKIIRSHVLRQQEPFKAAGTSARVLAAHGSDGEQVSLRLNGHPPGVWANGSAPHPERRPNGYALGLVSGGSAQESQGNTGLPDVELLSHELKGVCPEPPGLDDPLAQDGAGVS

Row | Ki [nM] | Structure (SMILES)
1 | 138 | Cc1cnn([C@H]2C[C@@H](n3cnc4c(N)nc(N[C@@H]5CCC[C@H]5OCc5ccccc5)nc43)[C@H](O)[C@@H]2O)c1 [Example 22, (1R,2S,3R,5S)-3-[6-Amino-2-((1R,2R)-2-benzyloxy-cyclopentylamino)-purin-9-yl]-5-(4-methyl-pyrazol-1-yl)-cyclopentane-1,2-diol]
2 | 121 | CCCCC#Cc1nc(N)c2ncn([C@@H]3C[C@H](n4cc(CC)cn4)[C@@H](O)[C@H]3O)c2n1 [Example 37, (1R,2S,3R,5S)-3-(6-Amino-2-hex-1-ynyl-purin-9-yl)-5-(4-ethyl-pyrazol-1-yl)-cyclopentane-1,2-diol]
3 | 67 | CCCCC#Cc1nc(N)c2ncn([C@@H]3C[C@H](n4cc(CO)cn4)[C@@H](O)[C@H]3O)c2n1 [Example 40, (1R,2S,3R,5S)-3-(6-Amino-2-hex-1-ynyl-purin-9-yl)-5-(4-hydroxymethyl-pyrazol-1-yl)-cyclopentane-1,2-diol]
4 | 10 | CCn1cnc(CCNc2nc(NCC(c3ccccc3)c3ccccc3)c3ncn([C@@H]4C[C@H](n5cc(CO)cn5)[C@@H](O)[C@H]4O)c3n2)c1 [Example 47, (1R,2S,3R,5S)-3-{6-(2,2-Diphenyl-ethylamino)-2-[2-(1-ethyl-1H-imidazol-4-yl)-ethylamino]-purin-9-yl}-5-(4-hydroxymethyl-pyrazol-1-yl)-cyclopentane-1,2-diol]
5 | 72 | CCc1cnn([C@H]2C[C@@H](n3cnc4c(NCCc5ccccc5)nc(NCCc5cn(CC)cn5)nc43)[C@H](O)[C@@H]2O)c1 [Example 54, (1R,2S,3R,5S)-3-{2-[2-(1-Ethyl-1H-imidazol-4-yl)-ethylamino]-6-phenethylamino-purin-9-yl}-5-(4-ethyl-pyrazol-1-yl)-cyclopentane-1,2-diol]
6 | 2 | CN(C)[C@@H]1CCN(c2nc(NCC(c3ccccc3)c3ccccc3)c3ncn([C@@H]4C[C@H](n5cc(CO)cn5)[C@@H](O)[C@H]4O)c3n2)C1 [Example 96, (1R,2S,3R,5S)-3-[2-((R)-3-Dimethylamino-pyrrolidin-1-yl)-6-(2,2-diphenyl-ethylamino)-purin-9-yl]-5-(4-hydroxymethyl-pyrazol-1-yl)-cyclopentane-1,2-diol]

The remaining lines, values behind:

Row | Structure (SMILES) | Ki [nM]
7 | Cc1cnn([C@H]2C[C@@H](n3cnc4c(NCC(c5ccccc5)c5ccccc5)nc(NC5CCC(N)CC5)nc43)[C@H](O)[C@@H]2O)c1 (stereo partly drawn) [Example 1, (1R,2S,3R,5S)-3-[2-(4-Amino-cyclohexylamino)-6-(2,2-diphenyl-ethylamino)-purin-9-yl]-5-(4-methyl-pyrazol-1-yl)-cyclopentane-1,2-diol trifluoroacetate] | 197
8 | Cc1cnn([C@H]2C[C@@H](n3cnc4c(NCC(c5ccccc5)c5ccccc5)nc(NCCc5cnc[nH]5)nc43)[C@H](O)[C@@H]2O)c1 [Example 4, (1R,2S,3R,5S)-3-{6-(2,2-Diphenyl-ethylamino)-2-[2-(3H-imidazol-4-yl)-ethylamino]-purin-9-yl}-5-(4-methyl-pyrazol-1-yl)-cyclopentane-1,2-diol] | 172
9 | NC1CCC(Nc2nc(NCC(c3ccccc3)c3ccccc3)c3ncn([C@@H]4C[C@H](n5cccn5)[C@@H](O)[C@H]4O)c3n2)CC1 (stereo partly drawn) [Example 12, (1R,2S,3R,5S)-3-[2-(4-Amino-cyclohexylamino)-6-(2,2-diphenyl-ethylamino)-purin-9-yl]-5-pyrazol-1-yl-cyclopentane-1,2-diol] | 272
10 | CCc1nnn([C@H]2C[C@@H](n3cnc4c(NCC(c5ccccc5)c5ccccc5)nc(N5CC[C@@H](NC(=O)NC6CCN(c7ccccn7)CC6)C5)nc43)[C@H](O)[C@@H]2O)n1 [Example 45, 1-((R)-1-{6-(2,2-Diphenyl-ethylamino)-9-[(1R,2S,3R,4S)-4-(5-ethyl-tetrazol-2-yl)-2,3-dihydroxy-cyclopentyl]-9H-purin-2-yl}-pyrrolidin-3-yl)-3-(3,4,5,6-tetrahydro-2H-[1,2′]bipyridinyl-4-yl)-urea] | 17
11 | O=C(N[C@@H]1CCNC1)c1nc(NCC(c2ccccc2)c2ccccc2)c2ncn([C@@H]3C[C@H](n4cc(CO)cn4)C(O)C3O)c2n1 (stereo partly drawn) [Example 64, 9-[(1R,4S)-2,3-Dihydroxy-4-(4-hydroxymethyl-pyrazol-1-yl)-cyclopentyl]-6-(2,2-diphenyl-ethylamino)-9H-purine-2-carboxylic acid (R)pyrrolidin-3-yl amide] | 49
12 | Cc1nnn([C@H]2C[C@@H](n3cnc4c(NCC(c5ccccc5)c5ccccc5)nc(N5CC[C@@H](NS(C)(=O)=O)C5)nc43)[C@H](O)[C@@H]2O)n1 [Example 67, N-{(R)-1-[9-[(1R,2S,3R,4S)-2,3-Dihydroxy-4-(5-methyl-tetrazol-2-yl)-cyclopentyl]-6-(2,2-diphenyl-ethylamino)-9H-purin-2-yl]pyrrolidin-3-yl}-methanesulfonamide] | 71
13 | O=C(NC1CCN(c2ccccn2)CC1)N[C@@H]1CCN(c2nc(NCC(c3ccccc3)c3ccccc3)c3ncn([C@@H]4C[C@H](n5cc(CO)cn5)[C@@H](O)[C@H]4O)c3n2)C1 [Example 77, 1-{(R)-1-[9-[(1R,2S,3R,4S)-2,3-Dihydroxy-4-(4-hydroxymethyl-pyrazol-1-yl)-cyclopentyl]-6-(2,2-diphenyl-ethylamino)-9H-purin-2-yl]-pyrrolidin-3-yl}-3-(3,4,5,6-tetrahydro-2H-[1,2′]bipyridinyl-4-yl)-urea trifluoroacetate] | 20
14 | O=C(NC1CCN(c2ccc(C(=O)O)cn2)CC1)N[C@@H]1CCN(c2nc(NCC(c3ccccc3)c3ccccc3)c3ncn([C@@H]4C[C@H](n5cc(CO)cn5)[C@@H](O)[C@H]4O)c3n2)C1 [Example 86, 4-(3-{(R)-1-[9-[(1R,2S,3R,4S)-2,3-Dihydroxy-4-(4-hydroxymethyl-pyrazol-1-yl)-cyclopentyl]-6-(2,2-diphenyl-ethylamino)-9H-purin-2-yl]-pyrrolidin-3-yl}-ureido)-3,4,5,6-tetrahydro-2H-[1,2′]bipyridinyl-5′-carboxylic acid trifluoroacetate] | 40
15 | CCc1nnn([C@H]2C[C@@H](n3cnc4c(NCC(c5ccc(O)cc5)c5ccc(O)cc5)nc(N5CC[C@@H](NC(=O)Nc6ccncc6)C5)nc43)[C@H](O)[C@@H]2O)n1 [Example 109, 1-((R)-1-{6-[2,2-Bis-(4-hydroxy-phenyl)-ethylamino]-9-[(1R,2S,3R,4S)-4-(5-ethyl-tetrazol-2-yl)-2,3-dihydroxy-cyclopentyl]-9H-purin-2-yl}-pyrrolidin-3-yl)-3-pyridin-4-yl-urea hydrochloride] | 5
16 | CCc1cnn([C@H]2C[C@@H](n3cnc4c(NCC(c5ccccc5)c5ccccc5)nc(N5CC[C@@H](NC(=O)Nc6ccncc6)C5)nc43)[C@H](O)[C@@H]2O)n1 [Example 127, 1-((R)-1-{6-(2,2-Diphenyl-ethylamino)-9-[(1R,2S,3R,4S)-4-(4-ethyl-[1,2,3]triazol-2-yl)-2,3-dihydroxy-cyclopentyl]9H-purin-2-yl}-pyrrolidin-3-yl)-3-pyridin-4-yl-urea hydrochloride] | 3
17 | CCc1nnn([C@H]2C[C@@H](n3cnc4c(NCC(c5ccccc5)c5ccccc5)nc(N5CC[C@@H](NC(=O)NCc6ccnc7ccccc67)C5)nc43)[C@H](O)[C@@H]2O)n1 [Example 150, 1-((R)-1-{6-(2,2-Diphenyl-ethylamino)-9-[(1R,2S,3R,4S)-4-(5-ethyl-tetrazol-2-yl)-2,3-dihydroxy-cyclopentyl]-9H-purin-2-yl}-pyrrolidin-3-yl)-3 quinolin-4-ylmethyl-urea hydrochloride] | 6
18 | CCc1nnn([C@H]2C[C@@H](n3cnc4c(NCC(c5ccccc5)c5ccccc5)nc(N5CC[C@@H](NC(=O)Nc6cccc(-c7nnn[nH]7)c6)C5)nc43)[C@H](O)[C@@H]2O)n1 [Example 157, 1-((R)-1-{6-(2,2-Diphenyl-ethylamino)-9-[(1R,2S,3R,4S)-4-(5-ethyl-tetrazol-2-yl)-2,3-dihydroxy-cyclopentyl]-9H-purin-2-yl}-pyrrolidin-3-yl)-3-[3-(1H-tetrazol-5-yl)-phenyl]-urea hydrochloride] | 3
